Laboratory results from patent US20220030850A1, “CRYOPRESERVATIVE COMPOSITIONS AND METHODS” (REGENTS OF THE UNIVERSITY OF MINNESOTA, priority 2015, published 2022).

How the values were obtained:
Jurkat cells [1] = assay: 96-well plate freezing, post-thaw scaled raw recovery (calcein-AM/PI); assay type: cell-based
Experimental: The first phase of this study involved using the DE algorithm to develop a three-component cryopreservation solution used at a single cooling rate (1° C./min). Three components (trehalose, glycerol, and ectoine (TGE)) were selected as components of the exemplary freezing medium used for preservation of Jurkat cells, a hematopoietic model cell type, based on pre-screening of multiple non-DMSO components. For this single cooling rate study, the DE algorithm was programmed to output 18 vector solutions per generation with a weight=0.85 and a crossover=1. Jurkat cells cryopreserved in 10% DMSO at a cooling rate of 1° C./min were used as a control.
Cooling rate influences cell survival, and the preferred cooling rate for a given application can depend, at least in part, on the composition of the freezing medium and the cell type being frozen. […] To assess both cooling rate and the composition of the solution, the DE algorithm was programmed to output 27 vector solutions per generation with weight=0.85 and a crossover=1. Solutions were separated into categories based on their DE algorithm defined cooling rate, and were frozen in batches at a cooling rate of […], 0.5° C./min, 1° C./min, 3° C./min, 5° C./min, or 10° C./min. Results were normalized and scaled raw recovery is reported, allowing results from all cooling rates and all generations to be compared directly. […]
After 96 well plates were thawed, calcein-acetoxymethyl (AM)/propidium iodide was added to each well and the wells were covered from light and placed in a 37° C. incubator for 30 minutes to allow the live cells to cleave calcein-AM. The plates were then analyzed for fluorescence on a plate reader. Raw fluorescence values were used to calculate the number of live and dead cells present in each well by correlating to a control curve of unfrozen cells. The live cell recovery was calculated by dividing the number of live cells present in thawed samples (calcein-AM plate reader fluorescence) by the number of live cells seeded pre-freeze (AO/PI counts). […]

[2] = 10% DMSO solution; cited from earlier work
Jurkat cells [3] = assay: High throughput factorial screening with Linear Mixed Effects statistical analysis of recovery; assay type: cell-based; settings: statistical analysis of sugar and cooling rate
Experimental: In another evaluation, cells were combined with factorial combinations of the components listed in Table 5, using one component from each category. Plates including cells and solutions were frozen at cooling rates of 1′C/min, 3′C/min, 5′C/min, or 10′C/min.
Recovery was calculated by dividing the number of live cells post thaw—calculated using a control curve correlating calcein-acetoxymethyl (AM) fluorescence to cell count—by the number of live cells seeded pre-freeze (AO/PI counts taken prior to freezing). Recovery was normalized by dividing by the DMSO recovery on each plate, then multiplying by a standard DMSO recovery for each cooling rate. This normalized recovery was used to compare samples between different plates and different cooling rates.
Statistical analysis of the data was performed using a Linear Effects Model. The model associated with best fit was determined using Bayesian Information Criteria. […] The ten best combinations for Jurkats are summarized in Table 6 below, while the eight best combinations for MSCs are summarized in Table 7.
High throughput factorial screening experiments were performed on a Biomek Beckman FX 96 liquid handling robot. Briefly, 12.5 μl of an array of additives were transferred to nine 96-well plates containing 12.5 μl of different sugar alcohols. Cells (25 μl) diluted in either a sugar (in a solution of NORMOSOL-R; Hospira, Inc., Lake Forest, L) or a NORMOSOL-R blank solution were transferred to these nine plates to give a final volume of 50 μl in each well. Cells suspended in […] in media were also included as a row of each plate to serve as normalization wells for plate-to-plate comparison.
When all plate volume transfers were complete, silicone plate covers were used to seal each plate, and plates were transferred to a controlled rate freezer (Kryo 10 Series III, Planer PLC, Middlesex, United Kingdom) and frozen at cooling rates ranging from 1° C./min to 10° C./min. The concentrations of components present in solution are listed in Table 11, and were selected based on values described in literature or solubility limits. Component concentrations were 0 if not listed in a solution.
Plate samples were also assessed for viability using fluorescence. Briefly, a solution of calcein-AM/propidium iodide was prepared and a volume of 50 μl was added to each sample well of experimental 96-well plates, producing a 1:1 dilution. Plates were protected from light and placed in an incubator for 30 minutes to allow for calcein-AM digestion. A fluorescent plate reader (Synergy HT, BioTek Instruments, Inc., Winooski, Vt.) was used to determine the fluorescence in each well, which was correlated to live and dead cell counts using a control curve.
Viability was calculated for all samples by dividing the number of live cells by the number of total cells. Recovery was calculated directly by dividing the number of live cells post thaw by the number of live cells pre-freeze. Recovery for 96-well plate samples was further normalized; each experimental sample recovery was divided by the DMSO recovery on the same plate, and then multiplied by the standard DMSO recovery for the cooling rate of each experiment.
To assess the importance of the four explanatory variables of interest (Sugar, Rate, Additive and Alcohol), without neglecting the variation between each batch and between each plate within the batches, we sought to find the best Linear Mixed Effects (LME) model. […]

Row | SMILES | recovery of Jurkat cells (Jurkat cells [1]; 10% DMSO at 1° C./min, control, 96-well) [%] | osmolarity [2] [mOsm] | recovery of Jurkat cells, sugar synergy study (Jurkat cells [1]; 150, 300, 600 mM total sugar, FIG. 8) | cooling rate at which cells performed better with the sugar (Jurkat cells [3])
1 | C[S+](C)[O-] [DMSO, dimethyl sulfoxide] | 16 | ~1400 |  | 
2 | OC[C@H]1O[C@@](CO)(O[C@H]2O[C@H](CO)[C@@H](O)[C@H](O)[C@H]2O)[C@@H](O)[C@@H]1O [Sucrose] |  |  | outperformed monosaccharides | 10 °C and 1° C./min
